Molecules are shown by their SMILES. Where two headings read alike, the source gives them in different places.

In one data set the test system is L36 Tumors. The experiment in a line: Short term (4/24 hrs) histopathology of L3.6 tumors: necrosis, mitotic index, apoptosis (H&E), caspase 3 staining. It counts as in vivo, mice. Here is the method:
(§1) In vivo experiments utilized SCID/Beige/Taconic male mice inoculated subcutaneously (S.C.) with 2×10^6 L3.6 pancreatic cells. Chemotherapy dose levels were based on standardized clinical dosing as modified from in vitro data. […] The data recovered included maximum tumor volume, tumor weight, body weight and survival. Histopathology studies were carried out in a separate group of 40 mice treated by the same drug dose levels and autopsied at 4 hours and 24 hours. Tumors were bi-valved and fixed in buffered formalin or frozen in hexane/acetone bath. A major focus was effects on tumor necrosis, apoptosis, mitotic index and caspase 3 index.

In data set [1] the test system is L3.6 pancreatic tumor implants. The following applies: for anti-tumor response in combination therapy with C6-ceramide: SCID Mice bearing L3.6 pancreatic tumor implants; for Mean Body Weight (g) (Time of Death or Sacrifice): at time of death or sacrifice. Here is the method:
as §1
SCID/Beige/Taconic male mice, 22-25 g, 6-8 weeks old purchased from Taconic Laboratory (Germantown, N.Y.) were ear tagged and randomized into eight groups of 5 mice each prior to inoculation s.c. with 2×10^6 L3.6 PA cells (46) in a volume 0.1 ml into the internal surface of the right thigh. Treatment was started according to the protocol <0.5 cc> (early 4 days or late 10 days). […] Mice were treated 3 times/week for 4-6 weeks with intraperitoneal injections of chemotherapy at dose levels to be described. Body weight of mice and diameters of tumors were measured every week. Tumor volumes (cm^3) were calculated by formula: V=Higher diameter X (smaller diameter)^2/2 (47-50). At the end of the 6 week observation period surviving mice were euthanized with CO2 inhalation. All the mice were autopsied and tissues were fixed in 10% buffered formalin, embedded in paraffin, and H&E sections of primary tumor, lungs, spleen, liver were examined microscopically. We also analyzed survival rate (%), mean tumor volume (MTV), mean survival time (MST), % mice with primary tumors and final rate of tumor development per survival time (FRTD). The last test was calculated from the MTV and MST: FRTD(cm^3/d)=MTV (cm^3/MST/day).
Our initial dose response studies were done using low dose ceramide 1 mg/kg and oxaliplatin dose levels of 11.0 mg/kg→3.5 mg/kg. […] We next studied the optimum ceramide dose level from 1 mg/kg to 10 mg/kg.

Setting [2] is: IP 3x/wk from day 4, paclitaxel 3.0, oxaliplatin 2.5, cisplatin 0.5 mg/kg, ceramide 10 mg/kg, volumes calculated in cm^3.
Where [3] appears, read: Oxaliplatin at 2.5 mg/kg with low dose ceramide 1 mg/kg.
Setting [4] is: same dosing, 6 week observation.

Turning to `O=C1[O][Pt]2([NH][C@@H]3CCCC[C@H]3[NH]2)[O]C1=O` [Oxaliplatin], the “% of Necroses” value in the data set on L36 Tumors (4 hr after treatment) is 30%. In the data set on L36 Tumors (4 hrs), the “Apoptosis Index” value worked out at 1.35, the “Apoptosis N/4000 Cells” value was found to be 54 N/4000 Cells, the “Caspase 3 Index” value is given as 3.5 and the “Caspase N/4000 Cells” value is given as 148 N/4000 Cells. Besides, in the data set with L36 Tumors (4 hrs), the “Difference in Caspase Expression Vs. Control” value (shortened to “Difference”) is recorded as 132% and the “Mitotic Index” value was found to be 0.92%. Also, in the data set on L36 Tumors (24 hr after treatment), the “% of Necroses” value was determined as 10%. Moreover, in the data set on L36 Tumors (24 hrs), the “Apoptosis Index” value is 1.28, the “Apoptosis N/4000 Cells” value is 51 N/4000 Cells, the “Caspase 3 Index” value was 3/1 and the “Caspase N/4000 Cells” value is reported as 123 N/4000 Cells. Also, in the data set on L36 Tumors (24 hrs), the “Difference” value came out at 121% and the “Mitotic Index” value is reported as 0/57. Moreover, in data set [1], the “% Survival @ 3 Weeks” value was 100%, the “% Survival @ 6 Weeks” value worked out at 0%, the “anti-tumor response in combination therapy with C6-ceramide” value (from here on “anti-tumor response”) was “significantly enhanced” and the “Mean Body Weight (g) (Time of Death or Sacrifice)” value (“Mean Body Weight (g)” below) is 15.6 g. Further, in data set [1] (table T3), the “% Surviving at 3 wks” value came to 100%, the “% Surviving at 6 wks” value is given as 0%, the “Mean Final Tumor Volume” value is 1.76 +/− 0.2 and the “Mean Survival Time” value is on record as 27.4 +/− 2.2. Further, the “Mean Final Tumor Volume” value in data set [1] (setting [2]) is listed as 1.76 +/− 0.2. Further, in data set [1] (setting [3]), the “activity in initial dose response studies” value is “most active” and the “toxicity in initial dose response studies” value is “less toxic than other dose levels”. For the same molecule, in data set [1] (setting [4]), the “Mean Survival Time” value worked out at 27.4 ± 2.2 days.
With `N.N.[Cl][Pt][Cl]` [Cisplatin], in data set [1], the “% Survival @ 3 Weeks” value turned out to be 60%, the “% Survival @ 6 Weeks” value is 0%, the “anti-tumor response” value was “significantly enhanced” and the “Mean Body Weight (g)” value stood at 16.6 g. Moreover, in data set [1] (table T3), the “% Surviving at 3 wks” value worked out at 60%, the “% Surviving at 6 wks” value is recorded as 0%, the “Mean Final Tumor Volume” value is given as 1.83 +/− 0.1 and the “Mean Survival Time” value was 25.6 +/− 3.2. In addition, the “Mean Final Tumor Volume” value in data set [1] (setting [2]) is 1.83 +/− 0.1. The “Mean Survival Time” value in data set [1] (setting [4]) is 25.6 ± 3.2 days.
`CC(=O)O[C@H]1C(=O)[C@@]2(C)[C@H]([C@H](OC(=O)c3ccccc3)[C@]3(O)C[C@H](OC(=O)[C@H](O)[C@@H](NC(=O)c4ccccc4)c4ccccc4)C(C)=C1C3(C)C)[C@]1(OC(C)=O)CO[C@@H]1C[C@@H]2O` [Taxol, Paclitaxel]: the “% of Necroses” value in the data set on L36 Tumors (4 hr after treatment) was 50/NA %. Further, in the data set on L36 Tumors (4 hrs), the “Apoptosis N/4000 Cells” value is listed as 66 N/4000 Cells and the “Difference” value is listed as 95%/ ^. In addition, the “Apoptosis N/4000 Cells” value in the data set on L36 Tumors (24 hrs) is given as 110 N/4000 Cells. For the same molecule, in data set [1], the “% Survival @ 3 Weeks” value turned out to be 60%, the “% Survival @ 6 Weeks” value was determined as 0%, the “anti-tumor response” value is reported as “significantly enhanced” and the “Mean Body Weight (g)” value is 17.4 g. In addition, in data set [1] (table T3), the “% Surviving at 3 wks” value is given as 60%, the “% Surviving at 6 wks” value is on record as 0%, the “Mean Final Tumor Volume” value is listed as 1.83 +/− 0.4 and the “Mean Survival Time” value was 23.0 +/− 2.4. Besides, the “Mean Final Tumor Volume” value in data set [1] (setting [2]) was 1.83 +/− 0.4. Moreover, the “Mean Survival Time” value in data set [1] (setting [4]) came out at 23.0 ± 2.4 days.
On to `CCCCCCCCCCCCC/C=C/[C@@H](O)[C@H](CO)NC(=O)CCCCC` [Ceramide, N-hexanoyl-D-sphingosine], for which, in the data set with L36 Tumors (4 hr after treatment), the “% of Necroses” value was 30/NA %. Besides, in the data set with L36 Tumors (4 hrs), the “Apoptosis Index” value came to 1.6, the “Apoptosis N/4000 Cells” value is on record as 64 N/4000 Cells, the “Caspase 3 Index” value stood at 4.12 and the “Caspase N/4000 Cells” value came to 165 N/4000 Cells. Besides, in the data set on L36 Tumors (4 hrs), the “Difference” value worked out at 155% and the “Mitotic Index” value was determined as 0.6%. Moreover, in the data set on L36 Tumors (24 hrs), the “Apoptosis Index” value was 1/2, the “Apoptosis N/4000 Cells” value is on record as 46 N/4000 Cells, the “Caspase 3 Index” value is listed as 4.25 and the “Caspase N/4000 Cells” value was found to be 157 N/4000 Cells. In addition, in the data set on L36 Tumors (24 hrs), the “Difference” value came to 148% and the “Mitotic Index” value is given as 0/32. Besides, in data set [1], the “% Survival @ 3 Weeks” value came to 40%, the “% Survival @ 6 Weeks” value is 0% and the “Mean Body Weight (g)” value amounted to 17.0 g. In addition, in data set [1] (table T3), the “% Surviving at 3 wks” value turned out to be 40%, the “% Surviving at 6 wks” value is on record as 0%, the “Mean Final Tumor Volume” value is 1.69 +/− .03 and the “Mean Survival Time” value is recorded as 20.8 +/− 1.1. Besides, the “synergy regarding anti-tumor effect” value in data set [1] (Ceramide 10 mg/kg with oxaliplatin 2.5 mg/kg) is reported as “optimum synergy”. The “enhancement of oxaliplatin by ceramide” value in data set [1] (Ceramide at 1 mg/kg with oxaliplatin 2.5 mg/kg) is “only modest effects”. Moreover, in data set [1] (setting [2]), the “Mean Final Tumor Volume” value is reported as 1.69 +/− 0.3. The “animal weight under combination therapy” value in data set [1] (mouse, in vivo) was “preservation of animal weight”. Besides, the “Mean Survival Time” value in data set [1] (setting [4]) came to 20.8 ± 1.1 days.

(Values after patent US20080033039A1, “Combination of ceramide and oxaliplatin for inducing cell death and uses thereof in treating cancer” (priority 2006, published 2008).)
